Results on one molecule are retold here after patent publication US9326968B2, “Composition for enhancing immunity containing compounds represented by chemical formulas 1-8 or sophora flavescens extract as active ingredient” (Korea Research Institute of Bioscience and Biotechnology, priority 2010, dated 2016).

Molecules are shown by their SMILES.

The subject of one experiment is p-38. Nature of the experiment: TLR-3 signal pathway western blot, total protein: p-38 phosphorylation. Conditions: THP-1 cells, 30 μM, 60 μM, and 100 μM 1 hour prior to 50 μg/ml poly (I:C) for 3 hours; concentration-dependent. The class given is cell-based, human. The protocol:
(§1) First, THP-1 cells were prepared at a density of 1.5×10^6 cells/well and cultured in culture medium RPMI 1640 which lacks FBS for 12 hours. Then, the cells were treated with the compound of Formula 1 at a concentration of 30 μM, 60 μM, and 100 μM 1 hour prior to the poly(I:C) treatment, and then treated with 50 μg/ml of poly (I:C) for 3 hours. After 3 hours of treatment, the cells were placed in a tube and pelleted down by centrifugation to remove cell media, washed with PBS once. Subsequently, the cells were added with NE-PER Nuclear extraction reagents (Thermo scientific) and cell lysis buffer to isolate nuclear extract and total protein extract which were then subject to western blot analysis. For the nuclear extract, the level of NFkB and c-Fos was monitored, and for the total protein extract, the level of MAPKs, IKK isoforms, and IRF3 was measured. […] Furthermore, the phosphorylation of MAPKs, i.e., ERK, JNK, and p-38 which act before AP-1 activation in the pathway was reduced by the compound of Formula 1 in a concentration-dependent manner (FIG. 9e).

A further experiment relates to NFkB p65. Put plainly: TLR-3 signal pathway western blot, nuclear extract: NFkB p65. Conditions: THP-1 cells, 30 μM, 60 μM, and 100 μM 1 hour prior to 50 μg/ml poly (I:C) for 3 hours; concentration-dependent. The class given is cell-based, human. As to the method:
as §1
In general terms: A western blot detects proteins with antibodies after separation by electrophoresis.

The subject of experiment [1] is rotavirus KJ56-1 (bovine rotavirus, G8P[7]). Nature of the experiment: Proliferation of rotavirus KJ56-1 in TF-104 cells. Conditions: MOI 0.01, 30 μM, 3 days. The class given is cell-based. The protocol: In order to investigate the inhibitory effects of the above-disclosed compounds represented by Formulas 1 to 8 against proliferation of rotavirus, the following experiment was conducted using the fetal rhesus monkey kidney cell line TF-104. First, TF-104 cells (1×10^5 cells/well) were treated with rotavirus KJ56-1 (bovine rotavirus, […][7]) with multiplicity of infection (MOI) of 0.01 for 1 hour. Then the supernatant was removed from the cell pellet, and the pelleted cells were added to EMEM medium mixed with 1 μg/ml of trypsin and compounds of Formulas 1 to 8 and cultured at 37° C. for 3 days.

In a further experiment the test system is ERK. Put plainly: TLR-3 signal pathway western blot, total protein: ERK phosphorylation. Conditions: THP-1 cells, 30 μM, 60 μM, and 100 μM 1 hour prior to 50 μg/ml poly (I:C) for 3 hours; concentration-dependent. The class given is cell-based, human. The protocol: as §1
For another experiment, the system named is rotavirus 205-1. Put plainly: Proliferation of rotavirus 205-1 in TF-104 cells. The class given is cell-based, porcine rotavirus. Conditions: 30 μM.
In experiment [2] the test system is IRF3. Nature of the experiment: IRF3 activation in THP-1 cells treated with poly (I:C), western blot. The class given is cell-based, human. Conditions: 30 μM and 60 μM for 1 hour, then 50 μg/ml poly (I:C) for 3 hours, compared to poly (I:C) only. The protocol: First, in order to investigate the effect of the extract in IRF3 activation, THP-1 cells were prepared at a density of 1.5×10^6 cells/well, and treated with the compound of Formula 1 at a concentration of 30 μM and 60 μM for 1 hour and then treated with 50 μg/ml of poly (I:C) for 3 hours. After 3 hours of treatment, the cells were placed in a tube and pelleted down through centrifugation to remove cell media, which was then washed with PBS once and mixed with NE-PER Nuclear extraction reagent (Thermo scientific) and cell lysis buffer to isolate nuclear extract and total protein extract. The isolated extracts were subject to western blot analysis.

The subject of the next experiment is IFN-β. Put plainly: IFN-β expression in THP-1 cells, Real-time PCR. The class given is cell-based, human. Conditions: 10 μM, 30 μM, and 60 μM for 6 hours. For orientation: Real-time PCR tracks product formation cycle by cycle.
The test system of the next experiment is TRIF-CFP. Nature of the experiment: Distribution of TRIF-CFP in transfected THP-1 cells treated with poly (I:C), confocal microscope. The class given is cell-based, human. Conditions: THP-1 cells transfected with pcDNA3-TRIF-CFP, 30 μM, then 50 μg/ml poly (I:C) for 1 hour. As to the method: In order to monitor the changes in distribution of TRIF-CFP in vivo by the compound of Formula 1, THP-1 cells (1×10^6 cells/well) were transfected with 0.5 μg of pcDNA3-TRIF-CFP plasmid by using Nucleofector kit V (Lonza, Switzerland) and cultured at 37° C. for 2 days. Then, the transfected cells were placed in 8-chamber slide coated with Poly-L-Lysine and treated with the compound of Formula 1 at 30 μM, and treated with 50 μg/ml of poly (I:C) for 1 hour. After removing the supernatant, the cells were washed with PBS three times, and fixed onto the slide by applying 200 μl of 4% paraformaldehyde and slowfade gold antifade reagent. Then the changes in the distribution of TRIF-CFP were monitored under carl zeins LSM 510 META confocal microscope.

The test system of a further experiment is IkB. Nature of the experiment: TLR-3 signal pathway western blot, total protein: IkB phosphorylation. Conditions: THP-1 cells, 30 μM, 60 μM, and 100 μM 1 hour prior to 50 μg/ml poly (I:C) for 3 hours; concentration-dependent. The class given is cell-based, human. The protocol:
as §1

In experiment [3] the test system is IRF3. Put plainly: IRF3 activity/phosphorylation in THP-1 cells, western blot. The class given is cell-based, human. Conditions: treated with the compound only.
Experimental: First, in order to investigate the effects of the extract in activation of IRF3, THP-1 cells were prepared at a density of 1.5×10^6 cells/well and treated with 30 μg/ml of S. flavescens extract, 60 μg/ml of water fraction thereof, or 30 μg/ml of chloroform fraction thereof for 2 hours. After 2 hours of treatment with the extract and fractions thereof, the cells were put into tubes and pelleted down through centrifugation to remove culture media. Then the cell pellet was washed with PBS once and treated with cell lysis buffer to isolate total protein extracts, which were then subjected to western blot analysis. In this analysis, IRF3 protein level was measured.
The subject of another experiment is c-Fos. Nature of the experiment: TLR-3 signal pathway western blot, nuclear extract: c-Fos. The class given is cell-based, human. Conditions: THP-1 cells, 30 μM, 60 μM, and 100 μM 1 hour prior to 50 μg/ml poly (I:C) for 3 hours; concentration-dependent. The protocol:
as §1

The next experiment concerns IKK. Put plainly: TLR-3 signal pathway western blot, total protein: IKK phosphorylation. Conditions: THP-1 cells, 30 μM, 60 μM, and 100 μM 1 hour prior to 50 μg/ml poly (I:C) for 3 hours; concentration-dependent. The class given is cell-based, human. As to the method: as §1
The test system of a further experiment is JNK. Nature of the experiment: TLR-3 signal pathway western blot, total protein: JNK phosphorylation. The class given is cell-based, human. Conditions: THP-1 cells, 30 μM, 60 μM, and 100 μM 1 hour prior to 50 μg/ml poly (I:C) for 3 hours; concentration-dependent. As to the method: as §1

Experimental for IFN-β: After 6 hours of treatment, the cells were placed in tubes and pelleted down through centrifugation to remove cell media, which was then washed with PBS once and RNA was extracted from the washed cells by using RNeasy Mini Elute Cleanup kit. The concentration and purity of RNA extract was measured by using 2100 Bioanalyzer system (Agilent Technologies), and cDNA was synthesized from this RNA extract by using Taqman reverse transcription reagents kit (Applied Biosystems). The expression level of IFN-β was measured by running Real-time PCR using SYBR Green PCR master mix kit (Applied Biosystem).
Subsequently, in order to investigate the effect of compound of Formula 1 in expression of IFN-β which is induced by IRF3 activation, the compound of Formula 1 was added to the cell group at a concentration of 10 μM, 30 μM, and 60 μM for 6 hours and then the expression level of IFNβ was measured.

For `C=C(C)C(CCC(C)(C)O)Cc1c(O)cc(O)c2c1OC(c1ccc(O)cc1O)CC2=O` (stereo not shown) [Formula 1, 5,7,2′,4′-trihydroxy-8-(5-hydroxy-2-isoprenyl-5-methyl-hexyl-)flavanone], the “phosphorylation of p-38” value in the experiment on p-38 is listed as “reduced”. The “transport of NFkB p65 to nucleus” value in the experiment with NFkB p65 is “reduced”. Also, the “proliferation of rotavirus KJ56-1” value in experiment [1] is given as “significantly inhibited”. For the same molecule, the “phosphorylation of ERK” value with ERK is on record as “reduced”. In addition, the “proliferation of rotavirus 205-1” value in the experiment on rotavirus 205-1 is “significantly inhibited”. For the same molecule, in the experiment with IRF3 [2], the IRF3 activation entry was “higher level of IRF3 activation”. Besides, the IFN-β expression entry with IFN-β is given as “concentration-dependent increase”. The “distribution of TRIF-CFP” value with TRIF-CFP was “even distribution of TRIF-CFP in the cytoplasm”. Also, the “phosphorylation of IkB” value in the experiment with IkB is given as “reduced”. Further, in the experiment on IRF3 [3], the IRF3 activity entry is reported as “concentration-dependent increased”. Moreover, in the experiment on c-Fos, the “transport of c-Fos to nucleus” value was “reduced”. Also, the “phosphorylation of IKK” value in the experiment with IKK is on record as “reduced”. Further, the “phosphorylation of JNK” value in the experiment with JNK is given as “reduced”.
